The values that follow come from patent publication US20030147950A1, “Modified release tamsulosin tablets” (priority 2001, published 2003).

SMILES strings stand for the structures.

This series can be described thus: Solubility of tamsulosin HCl in aqueous media. It counts as physicochemical. The note with it: up to 10 mg. The source says: SGF represents a standard stomach condition. SIF represents a standard intestinal condition. FeSSIF is tailored to better represent the fed state while FaSSIF is tailored to better represent the fasting state. Note that not only are the pH different, but equally important, the osmolarity are also different.

As for `CCOc1ccccc1OCCNC(C)Cc1ccc(OC)c(S(N)(=O)=O)c1` (stereo not shown) [tamsulosin HCI, 5-[2-[[2-(2-ethoxyphenoxy)ethyl]amino]propyl]-2-methoxy-benzenesulfonamide], the “volume of any aqueous media needed to dissolve until 10 mg” value is given as “not more than 500 ml”.
